From patent US8362038B2, “1-isopropyl-2-oxo-1,2-dihydropyridine-3-carboxamide derivatives having 5-HT4 receptor agonistic activity” (Pfizer Inc., priority 2004, dated 2013) come the findings set out here.

Data set [1] concerns the target T1, Human 5-HT4(d) (Homo sapiens, UniProt Q13639).
T1 construct: expressed in transfected cells; host or cells: HEK293
The data set can be described thus: Human 5-HT4 binding ([3H]-GR113808 displacement, SPA). The following applies: for Ki: membranes of human 5-HT4(d) transfected HEK293 cells, [3H]-GR113808 0.2 nM. The procedure:
The 5-HT4 receptor binding affinities of the compounds of this invention are determined by the following procedures.
Human 5-HT4(d) transfected HEK293 cells were prepared and grown in-house. The collected cells were suspended in 50 mM HEPES (pH 7.4 at 4° C.) supplemented with protease inhibitor cocktail (Boehringer, 1:1000 dilution) and homogenized using a hand held Polytron PT 1200 disruptor set at full power for 30 sec on ice. The homogenates were centrifuged at 40,000×g at 4° C. for 30 min. The pellets were then resuspended in 50 mM HEPES (pH 7.4 at 4° C.) and centrifuged once more in the same manner. The final pellets were resuspended in an appropriate volume of 50 mM HEPES (pH 7.4 at 25° C.), homogenized, aliquoted and stored at −80° C. until use. An aliquot of membrane fractions was used for protein concentration determination using BCA protein assay kit (PIERCE) and ARVOsx plate reader (Wallac).
For the binding experiments, 25 μl of test compounds were incubated with 25 μl of [^3H]-GR113808 (Amersham, final 0.2 nM) and 150 μl of membrane homogenate and WGA-SPA beads (Amersham) suspension solutions (10 μg protein and 1 mg SPA beads/well) for 60 minutes at room temperature. Nonspecific binding was determined by 1 μM GR113808 (Tocris) at the final concentration. Incubation was terminated by centrifugation at 1000 rpm. Receptor-bound radioactivity was quantified by counting with MicroBeta plate counter (Wallac).

Data set [2] in a line: Caco-2 permeability. The data set is classed as in vitro ADME. To be noted: human, Caco-2; apical pH 6.5 to basolateral pH 7.4, 10 μM, mean of 2 inserts; read-out: Caco2 Permeability [Papp]. The procedure:
(§1) Caco-2 permeability was measured according to the method described in Shiyin Yee, Pharmaceutical Research, 763 (1997).
(§2) Caco-2 cells were grown on filter supports (Falcon HTS multiwell insert system) for 14 days. Culture medium was removed from both the apical and basolateral compartments and the monolayers were preincubated with pre-warmed 0.3 ml apical buffer and 1.0 ml basolateral buffer for 0.5 hour at 37° C. in a shaker water bath at 50 cycles/min. The apical buffer consisted of Hanks Balanced Salt Solution, 25 mM D-glucose monohydrate, 20 mM MES Biological Buffer, 1.25 mM CaCl2 and 0.5 mM MgCl2 (pH 6.5). The basolateral buffer consisted of Hanks Balanced Salt Solution, 25 mM D-glucose monohydrate, 20 mM HEPES Biological Buffer, 1.25 mM CaCl2 and 0.5 mM MgCl2 (pH 7.4). At the end of the preincubation, the media was removed and test compound solution (10 μM) in buffer was added to the apical compartment. The inserts were moved to wells containing fresh basolateral buffer at 1 hr. Drug concentration in the buffer was measured by LC/MS analysis.
(§3) Flux rate (F, mass/time) was calculated from the slope of cumulative appearance of substrate on the receiver side and apparent permeability coefficient (Papp) was calculated from the following equation. Papp(cm/sec)=(F*VD)/(SA*MD)
(§4) where SA is surface area for transport (0.3 cm^2), VD is the donor volume (0.3 ml), MD is the total amount of drug on the donor side at t=0. All data represent the mean of 2 inserts. Monolayer integrity was determined by Lucifer Yellow transport.
(In general: Caco-2 monolayers are a common model of the intestinal barrier.)

Data set [3] has as its system Caco-2 cells. The data set can be described thus: Caco-2 permeability. Format: in vitro ADME. The procedure:
as §1, §2, §3, §4

One may read the melting point as the temperature, or range, at which the solid turns liquid. As usually defined, the Ki is the dissociation constant of the complex between target and ligand, obtained from inhibition or displacement. A low value points to tighter binding.

Where a name gives a salt, the structure may show the parent alone.

T1 sequence (Q13639 1-360 isoform Q13639-3): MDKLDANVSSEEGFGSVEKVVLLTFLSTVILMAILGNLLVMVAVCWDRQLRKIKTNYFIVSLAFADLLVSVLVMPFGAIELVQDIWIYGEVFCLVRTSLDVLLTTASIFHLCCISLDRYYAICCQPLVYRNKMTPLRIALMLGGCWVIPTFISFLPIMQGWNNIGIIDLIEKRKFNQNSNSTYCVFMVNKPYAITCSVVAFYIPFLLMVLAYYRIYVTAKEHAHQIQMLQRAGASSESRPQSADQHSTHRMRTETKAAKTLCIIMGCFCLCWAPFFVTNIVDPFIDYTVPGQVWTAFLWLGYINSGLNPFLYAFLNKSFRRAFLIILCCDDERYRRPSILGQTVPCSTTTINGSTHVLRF

On to `Cc1c(Cl)cc(C(=O)NCC2CCN(CC3(O)CCOCC3)CC2)c(=O)n1C(C)C` (as salt: hydrochloride) [Example 1, 5-Chloro-N-({1-[(4-hydroxytetrahydro-2H-pyran-4-yl)methyl]piperidin-4-yl}methyl)-1-isopropyl-6-methyl-2-oxo-1,2-dihydropyridine-3-carboxamide], for which the melting point is 283 °C (dec.).

In the case of `CCc1c(Cl)cc(C(=O)NCC2CCN(CC3(O)CCOCC3)CC2)c(=O)n1C(C)C` (as salt: salt) [Example 2, 5-Chloro-6-ethyl-N-({1-[(4-hydroxytetrahydro-2H-pyran-4-yl)methyl]piperidin-4-yl}methyl)-1-isopropyl-2-oxo-1,2-dihydropyridine-3-carboxamide], the melting point is 123 °C (dec.).

As to `Cc1cc(C(=O)NCC2CCN(CC3(O)CCOCC3)CC2)c(=O)n(C(C)C)c1C` (as salt: salt) [Example 3, N-({1-[(4-Hydroxytetrahydro-2H-pyran-4-yl)methyl]piperidin-4-yl}methyl)-1-isopropyl-5,6-dimethyl-2-oxo-1,2-dihydropyridine-3-carboxamide], the melting point is 178 °C (dec.).

Regarding `Cc1c(Br)cc(C(=O)NCC2CCN(CC3(O)CCOCC3)CC2)c(=O)n1C(C)C` (as salt: salt) [Example 4, 5-Bromo-N-({1-[(4-hydroxytetrahydro-2H-pyran-4-yl)methyl]piperidin-4-yl}methyl)-1-isopropyl-6-methyl-2-oxo-1,2-dihydropyridine-3-carboxamide], the melting point was 205 °C (dec.).

Regarding `CCCCN1CCC(CNC(=O)c2cc(Cl)c(N)n(C)c2=O)CC1` [Compound A], in data set [1], the “affinity / binding activity to 5-HT4 receptor (in words)” value is recorded as “weak affinity” and the Ki was greater than 500 nM. In data set [2], the Papp A→B at 10 μM was determined as 0.2 ×10⁻⁶ cm/s. Besides, the “permeability against caco2 membrane (in words)” value in data set [3] was “low permeability”.

In data set [1], `Cc1c(Cl)cc(C(=O)NCC2CCN(CC3(O)CCOCC3)CC2)c(=O)n1C(C)C` [Example 1, 5-Chloro-N-({1-[(4-hydroxytetrahydro-2H-pyran-4-yl)methyl]piperidin-4-yl}methyl)-1-isopropyl-6-methyl-2-oxo-1,2-dihydropyridine-3-carboxamide] displayed a Ki of 10.9 nM. In data set [2], the Papp A→B at 10 μM worked out at 5.3 ×10⁻⁶ cm/s.

Turning to `Cc1c(F)cc(C(=O)NCC2CCN(CC3(O)CCOCC3)CC2)c(=O)n1C(C)C` [Example 5, 5-Fluoro-N-({1-[(4-hydroxytetrahydro-2H-pyran-4-yl)methyl]piperidin-4-yl}methyl)-1-isopropyl-6-methyl-2-oxo-1,2-dihydropyridine-3-carboxamide], the melting point is 133 °C (dec.).

For the compound `Cc1c(Cl)cc(C(=O)NCC2CCN(CC3CCCCC3)CC2)c(=O)n1C(C)C` [Example 6, 5-Chloro-N-{[1-(cyclohexylmethyl)piperidin-4-yl]methyl}-1-isopropyl-6-methyl-2-oxo-1,2-dihydropyridine-3-carboxamide], the melting point is 168 °C (dec.).

For the compound `Cc1c(Cl)cc(C(=O)NCC2CCN(CC3(O)CCCCC3)CC2)c(=O)n1C(C)C` [Example 7, 5-Chloro-N-({1-[(1-Hydroxycyclohexyl)Methyl]Piperidin-4-Yl}Methyl)-1-Isopropyl-6-Methyl-2-Oxo-1,2-Dihydropyridine-3-Carboxamide], the melting point is 187 °C (dec.).
